Measured values as given in ChEMBL document CHEMBL1131353, “Structurally similar small molecule photoaffinity CCK-A agonists and antagonists as novel tools for directly probing 7TM receptors-ligand interactions” (Bioorg Med Chem Lett, 1998).

What was measured:
Rattus norvegicus [1] = species on record: Rattus norvegicus; experiment: Compound was tested in vitro for its ability to stimulate dispersed rat pancreatic acini to secrete amylase into the medium using CCK-8 as an agonist control; format: functional
[2] = target: T1, Cholecystokinin receptor type A (Rattus norvegicus) (UniProt P30551); experiment: In vitro efficacy was measured in rat Cholecystokinin type A receptor at 1.0 uM
T1 sequence (whole entry): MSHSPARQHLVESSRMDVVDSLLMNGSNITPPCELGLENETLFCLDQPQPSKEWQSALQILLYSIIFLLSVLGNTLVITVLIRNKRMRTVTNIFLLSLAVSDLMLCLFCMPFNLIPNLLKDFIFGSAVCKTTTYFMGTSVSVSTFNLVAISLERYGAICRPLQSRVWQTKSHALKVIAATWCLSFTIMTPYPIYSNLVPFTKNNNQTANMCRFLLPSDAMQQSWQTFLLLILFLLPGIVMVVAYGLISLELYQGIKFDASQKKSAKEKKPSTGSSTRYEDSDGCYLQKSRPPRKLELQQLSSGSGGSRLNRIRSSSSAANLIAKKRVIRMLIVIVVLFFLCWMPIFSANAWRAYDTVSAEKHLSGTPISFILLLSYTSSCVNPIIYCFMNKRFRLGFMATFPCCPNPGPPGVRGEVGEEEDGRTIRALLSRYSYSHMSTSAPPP

[3] = target: T2, Cholecystokinin receptor type A (Rattus norvegicus, UniProt P30551); experiment: Displacement of 125I]-D-Tyr-Gly-[(Nle28,31)CCK-26-33] from rat cell membrane Cholecystokinin type A receptor
T2 sequence (P30551 whole entry): T1 sequence (whole entry)

Rattus norvegicus [4] = species on record: Rattus norvegicus; experiment: Compound was tested in vitro for its ability to stimulate dispersed rat pancreatic acini to secrete amylase into the medium using CCK-8 as an agonist control; no activity detected at maximum concentration; format: functional

SMILES	EC50 (Rattus norvegicus [1])	Efficacy [2]	IC50 [3]	EC50 (Rattus norvegicus [4])
CC(C)N(C(=O)CN1C(=O)C(NC(=O)Nc2ccccc2)C(=O)N(c2ccccc2)c2ccccc21)c1ccccc1 (centres undefined)	40 nM	83%	–	–
COc1ccc(N(C(=O)CN2C(=O)C(NC(=O)Nc3cccc(C(=O)c4ccccc4)c3)C(=O)N(c3ccccc3)c3ccccc32)C(C)C)cc1 (centres undefined)	460 nM	68%	80 nM	–
COc1ccc(N(C)C(=O)CN2C(=O)C(NC(=O)Nc3ccccc3)C(=O)N(c3ccccc3)c3ccccc32)cc1 (centres undefined)	–	–	390 nM	–
CSCC[C@H](NC(=O)[C@H](Cc1ccc(OS(=O)(=O)O)cc1)NC(=O)[C@@H](N)CC(=O)O)C(=O)NCC(=O)N[C@@H](Cc1c[nH]c2ccccc12)C(=O)N[C@@H](CCSC)C(=O)N[C@@H](CC(=O)O)C(=O)N[C@@H](Cc1ccccc1)C(N)=O [SINCALIDE]	0.014 nM	–	–	–
COc1ccc(N(C(=O)CN2C(=O)C(NC(=O)Nc3cccc(C4(C(F)(F)F)N=N4)c3)C(=O)N(c3ccccc3)c3ccccc32)C(C)C)cc1 (centres undefined)	600 nM	75%	440 nM	–
CN(C(=O)CN1C(=O)C(NC(=O)Nc2cccc(C(=O)c3ccccc3)c2)C(=O)N(c2ccccc2)c2ccccc21)c1ccccc1 (centres undefined)	–	–	290 nM	–
CC(C)N(C(=O)CN1C(=O)C(NC(=O)Nc2cccc(C(=O)c3ccccc3)c2)C(=O)N(c2ccccc2)c2ccccc21)c1ccccc1 (centres undefined)	730 nM	64%	160 nM	–
COc1ccc(N(C)C(=O)CN2C(=O)C(NC(=O)Nc3cccc(C4(C(F)(F)F)N=N4)c3)C(=O)N(c3ccccc3)c3ccccc32)cc1 (centres undefined)	–	–	410 nM	Not Active
COc1ccc(N(C(=O)CN2C(=O)C(NC(=O)Nc3ccccc3)C(=O)N(c3ccccc3)c3ccccc32)C(C)C)cc1 (centres undefined)	–	–	50 nM	–
CN(C(=O)CN1C(=O)C(NC(=O)Nc2cccc(C3(C(F)(F)F)N=N3)c2)C(=O)N(c2ccccc2)c2ccccc21)c1ccccc1 (centres undefined)	–	–	310 nM	Not Active
CC(C)N(C(=O)CN1C(=O)C(NC(=O)Nc2cccc(C3(C(F)(F)F)N=N3)c2)C(=O)N(c2ccccc2)c2ccccc21)c1ccccc1 (centres undefined)	930 nM	47%	1300 nM	–
COc1ccc(N(C)C(=O)CN2C(=O)C(NC(=O)Nc3cccc(C(=O)c4ccccc4)c3)C(=O)N(c3ccccc3)c3ccccc32)cc1 (centres undefined)	–	–	350 nM	Not Active
